According to PubChem BioAssay AID194 (DTP/NCI, 2004):
Inconclusive results are not listed.

Test system: BDF1 mice, B16 melanoma s.c., survival/tumor T/C
Test: NCI In Vivo Anticancer Drug Screen. Data for tumor model B16 Melanoma (subcutaneous) in B6D2F1 (BDF1) mice
Settings: endpoint: median survival time, higher = longer survival
Protocol: The antitumor activity of compounds was measured in mice bearing transplantable tumors. Survival or tumor size were measured and the results are expressed as the measurement made in the treated group (T) divided by the measurement made in the vehicle treated control group (C). The tumor model used in this assay is B16 Melanoma (subcutaneous) in B6D2F1 (BDF1) mice

O=C1NC2(CCCCC2)C(=O)N1CCN(CCCl)CCCl
T/C (dose: 1.5 mg/kg/injection, schedule: Q01DX009 (ip), vehicle: saline with Tween-80): 106 % of control | T/C (dose: 3.0 mg/kg/injection, schedule: Q01DX009 (ip), vehicle: saline with Tween-80): 96 % of control | T/C (dose: 6.0 mg/kg/injection, schedule: Q01DX009 (ip), vehicle: saline with Tween-80): 118 % of control

CCC1(O)CC2CN(CCc3c([nH]c4ccccc34)C(C(=O)OC)(c3cc4c(cc3OC)N(C)C3C(O)(C(N)=O)C(O)C5(CC)C=CCN6CCC43C65)C2)C1 (stereo not given) (tested in a mixture with another compound)
T/C (dose: 1.8 mg/kg/injection, schedule: Q04DX003 (ip), vehicle: water): 87 % of control

O=NN(CCF)C(=O)NC1CCSCC1
T/C (dose: 31.0 mg/kg/injection, schedule: Q01DX001 (ip), vehicle: saline with Tween-80): 177 % of control | T/C (dose: 41.0 mg/kg/injection, schedule: Q01DX001 (ip), vehicle: saline with Tween-80): 186 % of control | T/C (dose: 55.0 mg/kg/injection, schedule: Q01DX001 (ip), vehicle: saline with Tween-80): 196 % of control

O=NN(CCF)C(=O)N[C@H]1CCCC[C@H]1O
T/C (dose: 5.18 mg/kg/injection, schedule: Q01DX007 (ip), vehicle: water): 68 % of control | T/C (dose: 8.64 mg/kg/injection, schedule: Q01DX007 (ip), vehicle: water): 105 % of control | T/C (dose: 14.4 mg/kg/injection, schedule: Q01DX007 (ip), vehicle: water): 121 % of control

C/C=C(\C)C(=O)O[C@@H]1c2cc3c(cc2-c2c(cc(OC)c(OC)c2OC)[C@@H]2C(=O)OC[C@@H]12)OCO3
T/C (dose: 1.25 mg/kg/injection, schedule: Q01DX009 (ip), vehicle: Klucel (hydroxypropylcellulose) (HPC)): 109 % of control | T/C (dose: 2.5 mg/kg/injection, schedule: Q01DX009 (ip), vehicle: Klucel (hydroxypropylcellulose) (HPC)): 101 % of control | T/C (dose: 5.0 mg/kg/injection, schedule: Q01DX009 (ip), vehicle: Klucel (hydroxypropylcellulose) (HPC)): 109 % of control | T/C (dose: 10.0 mg/kg/injection, schedule: Q01DX009 (ip), vehicle: Klucel (hydroxypropylcellulose) (HPC)): 101 % of control

Cc1c(N)nc(C(CC(N)=O)NCC(N)C(N)=O)nc1C(=O)NC(C(=O)NC(C)C(O)CC(=O)NC(C(=O)NC(OC1OC(C)C(N)C(O)C1O)C(O)c1nc(-c2nc(C(=O)NCCCC(N)CC(=O)NCCCNCCCCN)cs2)cs1)C(C)O)C(OC1OC(CO)C(O)C(O)C1OC1OC(CO)C(O)C(OC(N)=O)C1O)c1cnc[nH]1 (stereo not given)
T/C (dose: 1.0 mg/kg/injection, schedule: Q01DX009 (ip), vehicle: saline): 173 % of control | T/C (dose: 2.0 mg/kg/injection, schedule: Q01DX009 (ip), vehicle: saline): 174 % of control | T/C (dose: 4.0 mg/kg/injection, schedule: Q01DX009 (ip), vehicle: saline): 160 % of control

CN(Cc1cnc2nc(N)nc(N)c2n1)c1c(Cl)cc(C(=O)NC(CCC(=O)O)C(=O)O)cc1Cl (stereo not given)
T/C (dose: 60.0 mg/kg/injection, schedule: Q01DX009 (ip), vehicle: sodium bicarbonate): 103 % of control | T/C (dose: 90.0 mg/kg/injection, schedule: Q01DX009 (ip), vehicle: sodium bicarbonate): 110 % of control | T/C (dose: 135.0 mg/kg/injection, schedule: Q01DX009 (ip), vehicle: sodium bicarbonate): 101 % of control | T/C (dose: 600.0 mg/kg/injection, schedule: Q04DX003 (ip), vehicle: sodium bicarbonate): 109 % of control | T/C (dose: 670.0 mg/kg/injection, schedule: Q01DX001 (ip), vehicle: sodium bicarbonate): 97 % of control | T/C (dose: 900.0 mg/kg/injection, schedule: Q04DX003 (ip), vehicle: sodium bicarbonate): 102 % of control | T/C (dose: 1000.0 mg/kg/injection, schedule: Q01DX001 (ip), vehicle: sodium bicarbonate): 102 % of control

N/C(=N\Cl)C(Cl)(Cl)Cl
T/C (dose: 6.25 mg/kg/injection, schedule: Q01DX009 (ip), vehicle: saline with Tween-80): 102 % of control | T/C (dose: 12.5 mg/kg/injection, schedule: Q01DX009 (ip), vehicle: saline with Tween-80): 98 % of control | T/C (dose: 50.0 mg/kg/injection, schedule: Q01DX009 (ip), vehicle: saline with Tween-80): 94 % of control

CN[C@H]1CCc2cc(OC)c(OC)c(OC)c2-c2ccc(OC)c(=O)cc21
T/C (dose: 1.25 mg/kg/injection, schedule: Q01DX009 (ip), vehicle: saline): 109 % of control | T/C (dose: 2.5 mg/kg/injection, schedule: Q01DX009 (ip), vehicle: saline): 95 % of control | T/C (dose: 10.0 mg/kg/injection, schedule: Q01DX009 (ip), vehicle: saline): 111 % of control
